Data published in PMC10835127, “Viruses traverse the human proteome through peptide interfaces that can be biomimetically leveraged for drug discovery” (Proceedings of the National Academy of Sciences of the …, 2024).
Like-named read-outs stand apart in the source and are kept apart here.

Legend:
HIV1 strain NL4-3 = format: cell-based; conditions: normalized mean of HIV1 replication readout
HCV replicon = format: cell-based; conditions: normalized mean of HCV replicon readout
[1] = system: F. novicida (strain U112); format: cell-based
influenza A H1N1 virus = conditions: 48 hr post-treatment, A549
EBV = conditions: normalized mean of EBV replication readout

Row | Substance | HIV1 Norm MEAN (HIV1 strain NL4-3; peptide screen) | HCV Norm MEAN (HCV replicon; peptide screen) | Francisella novicida Norm AUC [1] | Neuraminidase activity normalized to vehicle (influenza A H1N1 virus; 200 µM peptide) | Neuraminidase activity normalized to vehicle (influenza A H1N1 virus; 0,823 µM peptide) | Neuraminidase activity normalized to vehicle (influenza A H1N1 virus; 22,2 µM peptide) | Neuraminidase activity normalized to vehicle (influenza A H1N1 virus; 2,4691 µM peptide) | Neuraminidase activity normalized to vehicle (influenza A H1N1 virus; 7,4074 µM peptide) | Neuraminidase activity normalized to vehicle (influenza A H1N1 virus; 66,6667 µM peptide) | EBV Norm MEAN (EBV; peptide screen) | HIV1 Norm MEAN (HIV1 strain NL4-3) | HCV Norm MEAN (HCV replicon) | EBV Norm MEAN (EBV)
1 | RDVLCLRPVGAESR [CPEP94] | 0.3822 | 0.7235 | 1.032 | 0,3954 | 0,7797 | 0,8926 | 0,8827 | 0,8423 | 0,695 | 0.9161 |  |  | 
2 | PVQES [CPEP44] |  |  | 0.7515 | 0,8825 | 0,8116 | 0,9052 | 0,843 | 0,7952 | 1,0152 |  | 2.9976 | 0.1889 | 1.192
3 | GHRMAWDMMMNWSP [CPEP107] | 1.4249 | 0.9584 | 0.9779 | 0,108 | 0,7424 | 0,9099 | 0,9047 | 0,8224 | 0,2891 | 0.9961 |  |  | 
4 | IKQEDIKP [CPEP109] |  |  | 0.9859 | 0,7052 | 0,9055 | 0,889 | 0,8881 | 0,975 | 0,8029 |  | 0.5534 | 0.2159 | 0.5875
5 | CPEP74: peptide of the viral peptide library; sequence page not shown (ALGISYGRKKRRQ) |  |  | 1.149 | 0,8907 | 0,913 | 0,9469 | 1,0192 | 0,9165 | 0,9895 |  | 1.112 | 0.6842 | 1.663
6 | MSKKPGGPGKNRAVN [CPEP42] | 0.4686 | 0.9525 | 1.093 | 0,9312 | 0,9146 | 1,055 | 0,9945 | 0,9864 | 1,0215 | 0.6277 |  |  | 
7 | LGQGVSIEW [CPEP122] |  |  | 1.0126 | 0,6921 | 1,0256 | 0,854 | 0,9073 | 0,9191 | 0,7889 |  | 0.4311 | 0.594 | 0.7196
8 | CPEP64: peptide of the viral peptide library; sequence page not shown (CCFHCQVCFIT) |  |  | 0.8687 | 0,0708 | 0,8369 | 0,1905 | 0,9654 | 0,5226 | 0,0909 |  | 8.487 | 1.72 | 0.8807
9 | RRKAK [CPEP70] |  |  | 0.442 | 1,0392 | 0,9822 | 0,9863 | 0,9261 | 0,9473 | 1,0254 |  | 3.517 | 0.1385 | 1.652
10 | YRHHY [CPEP48] |  |  | 0.6002 | 1,01 | 0,9611 | 1,0228 | 0,8941 | 0,9555 | 1,0901 |  | 1.395 | 0.151 | 1.742
